Activity calls are given as the source filed them. The calls are words filed in the database; no cut-off is given here.
Tests used:
Homo sapiens = organism: Homo sapiens; test: Selectivity index, ratio of IC50 for inhibition of FLT3 ITD mutant in human MOLM13 cells to IC50 for inhibition of JAK2 V617F mutant in human SET-2 cells; format: cell-based
[1] = test system: Receptor-type tyrosine-protein kinase FLT3 (Homo sapiens), P36888 [UNDEFINED MUTATION]; test: Inhibition of FLT3 ITD mutant in human MOLM13 cells assessed as residual activity at 100 nM relative to control; format: cell-based; settings: MOLM-13
[2] = target: Non-receptor tyrosine-protein kinase TYK2 (Homo sapiens, UniProt P29597); test: Inhibition of recombinant human TYK2 (875 to end residues) using GGMEDIYFEFMGGKKK as substrate incubated for 40 mins in presence of [gamma33P]ATP by scintillation counting based radiometry assay
[3] = Selectivity index, ratio of IC50 for inhibition of human JAK1 (866 to end residues) to IC50 for inhibition of recombinant human JAK2 (808 to end residues)
[4] = Cytotoxicity against rat H9c2(2-1) cells assessed as reduction in cell viability incubated for 72 hrs by MTT assay; format: cell-based; settings: H9c2, 72 h
[5] = Metabolic stability in rat liver microsomes assessed as half-life; format: ADME, Microsome
[6] = Cmax in male Sprague-Dawley rat at 5 mg/kg, po administered via gavage measured upto 24 hrs by LC/MS/MS analysis; format: ADME, organism-based; parameters: route oral, dose 5 mg/kg, time <=24; settings: in vivo
[7] = Elimination half life in male Sprague-Dawley rat at 5 mg/kg, po administered via gavage measured upto 24 hrs by LC/MS/MS analysis; format: ADME, organism-based; settings: in vivo, read-out: beta t1/2 (converted)
[8] = Apparent clearance in Sprague-Dawley rat at 5 mg/kg, po administered via gavage measured upto 24 hrs by LC/MS/MS analysis; format: ADME, organism-based; settings: in vivo, read-out: CL(app) (converted)
[9] = Cmax in male Sprague-Dawley rat at 5 mg/kg, iv administered […] measured upto 24 hrs by LC/MS/MS analysis; format: ADME, organism-based; parameters: route intravenous, dose 5 mg/kg, time <=24; settings: in vivo
[10] = Elimination half life in male Sprague-Dawley rat at 5 mg/kg, iv administered […] measured upto 24 hrs by LC/MS/MS analysis; format: ADME, organism-based; settings: in vivo, read-out: beta t1/2 (converted)
[11] = AUC (0 to t) in Sprague-Dawley rat at 5 mg/kg, iv administered […] measured upto 24 hrs by LC/MS/MS analysis; format: ADME, organism-based; parameters: route intravenous, dose 5 mg/kg, time <=24; settings: in vivo
SET-2 [12] = test: Antitumor activity against human SET2 cells xenografted in NOD/SCID mouse assessed as tumor growth inhibition at 15 mg/kg, po qd administered for 16 days and measured every 2 days relative to control; format: functional; settings: SET-2, po, 384 h, time 16 day, read-out: TGI
[13] = Toxicity in NOD/SCID mouse xenografted with human SET2 cells assessed as animal survival at 15 mg/kg, po qd administered for 16 days and measured every 2 days; format: organism-based; settings: in vivo, 384 h, time 16 day
BaF3 [14] = test: Antitumor activity against mouse BAF3 cells harboring JAK2 V617F mutant implanted in Balb/c mouse assessed as decrease in spleen weight at 30 mg/kg, po qd administered starting from day 4 to 20 and measured on day 25 relative to control; format: functional; parameters: scale not given: the % may be the effect or the level left; settings: time 21 day
BaF3 [15] = test: Antitumor activity against mouse BAF3 cells harboring JAK2 V617F mutant implanted in Balb/c mouse assessed as decrease in spleen weight at 60 mg/kg, po qd administered starting from day 4 to 20 and measured on day 25 relative to control; format: functional; parameters: scale not given: the % may be the effect or the level left; settings: time 21 day
SET-2 [16] = test: Induction of apoptosis in human SET-2 cells assessed as necrotic cells at 0.05 uM incubated for 24 hrs by Annexin V/PI staining based flow cytometric analysis (reference value: 0.78%); format: functional
SET-2 [17] = test: Induction of apoptosis in human SET-2 cells assessed as early apoptotic cells at 0.05 uM incubated for 24 hrs by Annexin V/PI staining based flow cytometric analysis (reference value: 1.47 %); format: functional
SET-2 [18] = test: Induction of apoptosis in human SET-2 cells assessed as early apoptotic cells at 0.2 uM incubated for 24 hrs by Annexin V/PI staining based flow cytometric analysis (reference value: 1.47 %); format: functional
SET-2 [19] = test: Induction of apoptosis in human SET-2 cells assessed as necrotic cells at 0.4 uM incubated for 24 hrs by Annexin V/PI staining based flow cytometric analysis (reference value: 0.78%); format: functional
SET-2 [20] = test: Induction of apoptosis in human SET-2 cells assessed as late apoptotic cells at 0.4 uM incubated for 24 hrs by Annexin V/PI staining based flow cytometric analysis (reference value: 1.52%); format: functional
SET-2 [21] = test: Induction of apoptosis in human SET-2 cells assessed as live cells at 0.4 uM incubated for 24 hrs by Annexin V/PI staining based flow cytometric analysis (reference value: 96.23 %); format: functional
SET-2 [22] = test: Induction of apoptosis in human SET-2 cells assessed as early apoptotic cells at 0.8 uM incubated for 24 hrs by Annexin V/PI staining based flow cytometric analysis (reference value: 1.47 %); format: functional
[23] = test system: Tyrosine-protein kinase JAK2 (Homo sapiens), O60674 [V617F]; test: Inhibition of JAK2 V617F mutant in human SET-2 cells assessed as reduction in STAT5 phosphorylation after 2 hrs by Western blot analysis; format: cell-based; settings: SET2, dose 1-1000 nM
[24] = target: Receptor-type tyrosine-protein kinase FLT3 (Homo sapiens) (UniProt P36888); test: Inhibition of FLT3 in human SET2 cells assessed as decrease in FLT3 phosphorylation at 1 to 1000 nM after 2 hrs by Western blot analysis; format: cell-based; settings: dose 1-1000 nM
[25] = target: Signal transducer and activator of transcription 3 (Mus musculus) (UniProt P42227); test: Inhibition of STAT3 phosphorylation in mouse BAF3 cells at 1000 nM after 2 hrs by Western blot analysis; format: cell-based
Mus musculus = test: In vivo inhibition of JAK2 V617F mutant in mouse BAF3 cells xenografted Balb/c nude mouse assessed as decrease in STAT5 phosphorylation in spleen at 30 to 60 mg/kg, po qd administered starting from day 4 to 20 and measured on day 25 by Western blot analysis; format: functional, organism-based; settings: dose 30-60 mg/kg, time 21.0 day
BaF3 [26] = test: Antitumor activity against mouse BAF3 cells harboring JAK2 V617F mutant implanted in Balb/c mouse assessed as decrease in liver weight at 30 mg/kg, po qd administered starting from day 4 to 20 and measured on day 25 relative to control; format: functional; parameters: scale not given: the % may be the effect or the level left; settings: time 21 day
BaF3 [27] = test: Antitumor activity against mouse BAF3 cells harboring JAK2 V617F mutant implanted in Balb/c mouse assessed as decrease in liver weight at 60 mg/kg, po qd administered starting from day 4 to 20 and measured on day 25 relative to control; format: functional; parameters: scale not given: the % may be the effect or the level left; settings: time 21 day

Chain of Non-receptor tyrosine-protein kinase TYK2 (P29597 whole entry): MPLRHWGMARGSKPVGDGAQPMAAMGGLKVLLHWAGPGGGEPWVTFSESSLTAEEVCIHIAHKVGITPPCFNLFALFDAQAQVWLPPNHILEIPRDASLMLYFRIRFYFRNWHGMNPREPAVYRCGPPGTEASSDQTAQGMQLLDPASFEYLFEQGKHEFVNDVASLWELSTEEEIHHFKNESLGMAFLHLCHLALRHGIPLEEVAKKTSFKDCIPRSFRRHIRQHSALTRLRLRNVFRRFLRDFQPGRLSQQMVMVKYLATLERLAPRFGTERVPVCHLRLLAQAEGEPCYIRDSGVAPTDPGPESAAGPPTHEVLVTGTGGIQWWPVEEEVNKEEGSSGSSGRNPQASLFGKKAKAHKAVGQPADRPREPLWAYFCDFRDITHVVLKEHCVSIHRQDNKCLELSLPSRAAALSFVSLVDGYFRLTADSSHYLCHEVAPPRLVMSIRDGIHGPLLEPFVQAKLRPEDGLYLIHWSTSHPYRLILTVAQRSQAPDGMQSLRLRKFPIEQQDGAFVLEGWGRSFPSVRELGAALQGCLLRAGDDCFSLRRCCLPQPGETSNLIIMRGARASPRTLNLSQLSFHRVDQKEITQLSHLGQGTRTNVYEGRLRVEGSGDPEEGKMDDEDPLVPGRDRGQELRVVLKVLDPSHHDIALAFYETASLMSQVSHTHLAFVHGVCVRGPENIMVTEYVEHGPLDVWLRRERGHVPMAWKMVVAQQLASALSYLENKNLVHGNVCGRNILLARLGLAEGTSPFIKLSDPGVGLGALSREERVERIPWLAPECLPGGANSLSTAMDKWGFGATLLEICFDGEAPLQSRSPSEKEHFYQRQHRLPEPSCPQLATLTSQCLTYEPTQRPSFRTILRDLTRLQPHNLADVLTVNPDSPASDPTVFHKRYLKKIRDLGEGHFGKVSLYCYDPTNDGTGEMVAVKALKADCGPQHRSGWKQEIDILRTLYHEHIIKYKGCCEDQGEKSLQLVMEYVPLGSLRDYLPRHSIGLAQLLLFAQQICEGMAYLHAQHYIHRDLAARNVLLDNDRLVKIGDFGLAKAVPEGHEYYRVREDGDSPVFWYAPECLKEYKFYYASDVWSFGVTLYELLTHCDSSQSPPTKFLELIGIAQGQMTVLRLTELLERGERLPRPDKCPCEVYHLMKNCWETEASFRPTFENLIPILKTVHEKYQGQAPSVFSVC
Chain of Tyrosine-protein kinase JAK2 (Homo sapiens), O60674 [V617F] (O60674 whole entry V617F): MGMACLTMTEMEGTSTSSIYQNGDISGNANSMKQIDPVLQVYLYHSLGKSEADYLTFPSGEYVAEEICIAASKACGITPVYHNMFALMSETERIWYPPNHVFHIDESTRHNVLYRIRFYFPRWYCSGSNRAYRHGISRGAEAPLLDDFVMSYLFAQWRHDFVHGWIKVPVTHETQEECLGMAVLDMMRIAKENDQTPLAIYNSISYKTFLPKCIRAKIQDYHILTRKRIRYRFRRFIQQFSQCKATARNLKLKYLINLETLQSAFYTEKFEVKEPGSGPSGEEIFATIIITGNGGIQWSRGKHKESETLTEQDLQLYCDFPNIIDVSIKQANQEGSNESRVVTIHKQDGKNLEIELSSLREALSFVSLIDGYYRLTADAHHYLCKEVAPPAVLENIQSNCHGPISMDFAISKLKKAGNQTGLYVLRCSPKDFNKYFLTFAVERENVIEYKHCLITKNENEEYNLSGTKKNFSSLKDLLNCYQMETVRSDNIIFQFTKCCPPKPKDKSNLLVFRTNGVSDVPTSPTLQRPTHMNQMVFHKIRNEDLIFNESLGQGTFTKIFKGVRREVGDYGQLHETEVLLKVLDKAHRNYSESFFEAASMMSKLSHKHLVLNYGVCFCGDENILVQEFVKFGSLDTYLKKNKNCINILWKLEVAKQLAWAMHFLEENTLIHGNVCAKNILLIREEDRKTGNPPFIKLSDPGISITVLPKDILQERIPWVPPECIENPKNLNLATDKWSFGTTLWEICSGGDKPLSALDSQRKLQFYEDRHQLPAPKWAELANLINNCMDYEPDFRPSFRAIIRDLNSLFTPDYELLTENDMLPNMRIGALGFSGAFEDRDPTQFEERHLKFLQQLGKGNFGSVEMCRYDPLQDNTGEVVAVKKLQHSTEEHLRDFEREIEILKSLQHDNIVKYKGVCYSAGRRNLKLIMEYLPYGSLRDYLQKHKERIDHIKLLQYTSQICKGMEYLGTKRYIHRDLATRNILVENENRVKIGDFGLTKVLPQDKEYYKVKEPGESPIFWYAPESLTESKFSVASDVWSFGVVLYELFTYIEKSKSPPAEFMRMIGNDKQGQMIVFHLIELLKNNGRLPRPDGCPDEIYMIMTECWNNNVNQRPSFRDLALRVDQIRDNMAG
Chain of Receptor-type tyrosine-protein kinase FLT3 (Homo sapiens) (P36888 whole entry): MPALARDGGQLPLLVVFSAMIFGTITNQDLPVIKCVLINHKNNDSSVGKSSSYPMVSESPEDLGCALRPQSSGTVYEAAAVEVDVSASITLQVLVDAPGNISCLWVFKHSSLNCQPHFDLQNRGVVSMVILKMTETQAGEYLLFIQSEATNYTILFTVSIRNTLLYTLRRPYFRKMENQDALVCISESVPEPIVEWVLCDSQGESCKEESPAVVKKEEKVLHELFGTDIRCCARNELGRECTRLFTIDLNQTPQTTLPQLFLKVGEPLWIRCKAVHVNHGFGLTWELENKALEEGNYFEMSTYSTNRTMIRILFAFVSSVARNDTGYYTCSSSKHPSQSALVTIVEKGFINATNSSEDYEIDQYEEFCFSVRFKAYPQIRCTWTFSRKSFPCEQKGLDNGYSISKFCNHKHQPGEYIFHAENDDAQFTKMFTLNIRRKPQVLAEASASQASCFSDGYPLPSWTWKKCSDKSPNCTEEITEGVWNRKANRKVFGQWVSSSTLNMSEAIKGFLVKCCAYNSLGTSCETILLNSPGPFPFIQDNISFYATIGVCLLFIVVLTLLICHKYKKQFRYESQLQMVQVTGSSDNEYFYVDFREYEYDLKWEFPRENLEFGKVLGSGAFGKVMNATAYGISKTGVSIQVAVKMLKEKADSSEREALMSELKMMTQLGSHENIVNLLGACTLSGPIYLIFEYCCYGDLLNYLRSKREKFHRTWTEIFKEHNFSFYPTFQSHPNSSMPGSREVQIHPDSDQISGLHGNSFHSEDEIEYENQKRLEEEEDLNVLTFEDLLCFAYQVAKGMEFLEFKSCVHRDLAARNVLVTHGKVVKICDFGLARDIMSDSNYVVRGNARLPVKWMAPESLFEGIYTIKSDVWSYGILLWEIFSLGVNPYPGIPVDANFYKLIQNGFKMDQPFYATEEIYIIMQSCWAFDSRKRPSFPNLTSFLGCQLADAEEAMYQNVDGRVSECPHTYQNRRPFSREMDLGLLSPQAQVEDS
Chain of Receptor-type tyrosine-protein kinase FLT3 (Homo sapiens), P36888 [UNDEFINED MUTATION] (P36888 whole entry, looked up, stated change not applied): as the sequence (P36888 whole entry) above
Chain of Signal transducer and activator of transcription 3 (Mus musculus) (P42227 whole entry): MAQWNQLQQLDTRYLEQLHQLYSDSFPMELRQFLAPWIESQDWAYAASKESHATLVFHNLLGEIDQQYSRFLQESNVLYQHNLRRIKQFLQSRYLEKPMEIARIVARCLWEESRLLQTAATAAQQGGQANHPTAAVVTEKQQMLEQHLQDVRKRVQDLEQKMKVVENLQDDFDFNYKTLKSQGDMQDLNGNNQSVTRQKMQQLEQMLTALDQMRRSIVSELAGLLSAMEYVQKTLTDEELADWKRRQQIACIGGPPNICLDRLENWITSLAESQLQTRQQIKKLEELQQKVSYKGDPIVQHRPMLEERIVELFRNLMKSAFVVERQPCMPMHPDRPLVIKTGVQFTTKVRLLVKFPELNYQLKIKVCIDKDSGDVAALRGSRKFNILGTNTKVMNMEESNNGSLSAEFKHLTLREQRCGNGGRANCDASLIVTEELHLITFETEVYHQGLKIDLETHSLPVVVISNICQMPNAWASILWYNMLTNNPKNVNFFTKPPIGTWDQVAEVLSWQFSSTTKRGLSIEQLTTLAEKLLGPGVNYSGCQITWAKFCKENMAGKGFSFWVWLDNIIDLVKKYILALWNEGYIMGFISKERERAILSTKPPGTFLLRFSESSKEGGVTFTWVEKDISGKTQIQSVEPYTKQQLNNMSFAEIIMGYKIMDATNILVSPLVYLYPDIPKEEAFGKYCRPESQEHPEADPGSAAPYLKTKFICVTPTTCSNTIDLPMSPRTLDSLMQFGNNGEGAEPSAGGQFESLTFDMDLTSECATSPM

Cc1cnc(Nc2ccc3c(c2)CCN(C(=O)/C=C/CN(C)C)C3)nc1-c1cnn(C(C)C)c1
Ratio IC50 (Homo sapiens): 75.2
Activity [1]: 54%
IC50 [2]: 0.075 µM
Ratio IC50 [3]: 14
IC50 [4]: 6.93 µM
half-life [5]: 0.91 h
Cmax [6]: 51.1 ng/mL
half-life [7]: 1.8 h
CL/F [8]: 480 mL/min/kg
Cmax [9]: 479 ng/mL
half-life [10]: 4 h
AUC(0-t) at 24 h [11]: 988 ng·h/mL
inhibition in vivo at 15 mg/kg (SET-2 [12]): 51.4%
Activity [13]: Non-Toxic
Activity (BaF3 [14]): 44%
Activity (BaF3 [15]): 77.1%
Activity (SET-2 [16]): 0.35%
Activity (SET-2 [17]): 2.7%
Activity (SET-2 [18]): 3.36%
Activity (SET-2 [19]): 0.48%
Activity (SET-2 [20]): 8.68%
Activity (SET-2 [21]): 84.92%
Activity (SET-2 [22]): 9.12%
inhibition [23]: Dose-dependent effect
inhibition [24]: inactive
inhibition [25]: inactive
inhibition (Mus musculus): Active
Activity (BaF3 [26]): 36.2%
Activity (BaF3 [27]): 66.3%
